The values that follow come from patent publication EP0739882B1, “Novel aconitine compounds and analgesic/anti-inflammatory agent containing the same” (SANWA SHOYAKU KABUSHIKI KAISHA, priority 1991, dated 1993).

The subject of data set [1] is Male mice of the Std:ddY Strain. Description: Analgesic activity by the acetic acid-induced writhing method. The format is in vivo. As to conditions: Mus musculus; test compound s.c. 30 minutes before 0.7 % acetic acid i.p.; writhing counted for 10 minutes; Litchfield-Wilcoxon; 95 % confidence limits in brackets. On the procedure: Experiment example 1 (Analgesic action)
Measurement of analgesic activity by the acetic acid-induced writhing method.
Male mice of the Std:ddY Strain (20 - 25g) were used. All mice were maintained at room temperature of 24 - 25 °C on a 12 hours light and dark cycle and were given food and water ad libitum. Test compound was used in 3 % suspension in gum arabic, 0.7 % acetic acid in 0.9 % physiological saline solution was injected i.p. (10ml / kg) at 30 minutes after test compound was administered s.c. After 10 minutes, the number of writhing movements was counted for a period of 10 minutes. 3 % gum arabic solution in 0.9 % physiological saline solution was used as a negative control. The ED50 values were calculated in accordance with the Litchfield-Wilcoxon's method based on judging to be positive in case of half and under the writhing number of negative control group.
On the technique in general: In writhing tests, fewer writhes than in controls are read as antinociception.

A short description of data set [2]: Acute toxicity (LD50, s.c.). The arrangement: species or system mice. To be noted: mouse, in vivo, sc, mortality during 72 hours, Litchfield-Wilcoxon, read-out: LD50 value, mg/kg (95 % confidence limits). On the procedure:
Experiment example 3 (Acute toxicity)
Male mice of the Std:ddY Strain (20 - 25g) were used. The LD50 values were calculated using the method of Litchfield-Wilcoxon from the mortality during 72 hours after test compound was administered s.c. The results are shown in Table 3.

Data set [3] in a line: Property and solubility (qualitative solubility in solvents). The format is physicochemical. To be noted: for Solubility: solvents in which insoluble: hexane and water.

As a reminder, the ED50 is the dose that gives a 50% effect, or the effect in half of the subjects.

Where only a bound is given, the exact number is not on record here.

In turn, `CCN1CC2(COC)C(O)CC(OC)C34C5CC6(O)C(OC)C(=O)C(C5C6OC(=O)c5cccc(Cl)c5)C(C(OC)C23)C14` (stereo not drawn) [14-O-m-chlorobenzoyl-16-epi-pyroaconine] displayed an ED50 in data set [1] of 11.9 mg/kg. Besides, the LD50 at 72 h in data set [2] was above 20 mg/kg. Also, in data set [3], the “Solubility: solvents in which soluble” value was “Soluble in ether, chloroform, benzene, ethanol, methanol, ethylacetate, pyridine and dimethyl sulfoxide”; the “Solubility: solvents in which insoluble” value was “Insoluble in hexane and water”.

As for `CCN1CC2(COC)C(O)CC(OC)C34C5CC6(O)C(OC)C(O)C(O)(C5C6OC(=O)c5ccc(Br)cc5)C(C(OC)C23)C14` (stereo not shown) [14-O-p-bromobenzoylaconine], in data set [1], the 50% effect level (ED50) was put at a dose of 6.42 mg/kg. The LD50 at 72 h in data set [2] is above 30 mg/kg. Moreover, in data set [3], the “Solubility: solvents in which soluble” value is “Soluble in ether, chloroform, benzene, ethanol, methanol, acetone, ethylacetate, pyridine and dimethyl sulfoxide”; the “Solubility: solvents in which insoluble” value is “Insoluble in hexane and water”.

For `COCC12CN(C)C3C4C(OC)C1C3(C(OC)CC2O)C1CC2(O)C(OC)C(O)C4(O)C1C2OC(=O)c1ccc(Cl)cc1` (stereo not shown) [14-O-p-chlorobenzoylmesaconine], in data set [1], it took a dose of 5.85 mg/kg to reach the 50% effect level (ED50). Also, the LD50 at 72 h in data set [2] is above 30 mg/kg. In data set [3], the “Solubility: solvents in which soluble” value is “Soluble in ether, chloroform, benzene, ethanol, methanol, acetone, ethylacetate, pyridine and dimethyl sulfoxide”; the “Solubility: solvents in which insoluble” value was “Insoluble in hexane and water”.

For `CCN1CC2(COC)CCC(OC)C34C5CC6C(OC)C(=O)C(C5C6OC(=O)c5cccc(Cl)c5)C(C(OC)C23)C14` (stereo not drawn) [3,13-dideoxy-14-O-m-chlorobenzoyl-16-epi-pyroaconine], it took a dose of 11 mg/kg to reach the 50% effect level in data set [1] (ED50). The LD50 at 72 h in data set [2] was above 20 mg/kg. In addition, in data set [3], the “Solubility: solvents in which soluble” value is “Soluble in ether, chloroform, benzene, ethanol, methanol, ethylacetate, pyridine and dimethyl sulfoxide”; the “Solubility: solvents in which insoluble” value was “Insoluble in hexane and water”.

Turning to 3,8-dideoxy-14-O-m-chlorobenzoylaconine, in data set [3], the “Solubility: solvents in which soluble” value is “Soluble in ether, chloroform, benzene, ethanol, methanol, ethylacetate, pyridine and dimethyl sulfoxide”; the “Solubility: solvents in which insoluble” value was “Insoluble in hexane and water”.

As for “3,13-dideoxy-14-O-m-chlorobenzoylaconine”, in data set [3], the “Solubility: solvents in which soluble” value was “Soluble in ether, chloroform, benzene, ethanol, methanol, ethylacetate, pyridine and dimethyl sulfoxide”; the “Solubility: solvents in which insoluble” value was “Insoluble in hexane and water”.

In data set [1], `CCN1CC2(COC)CCC(OC)C34C5CC6(O)C(OC)C(=O)C(C5C6OC(=O)c5cccc(Cl)c5)C(C(OC)C23)C14` (stereo not drawn) [3-deoxy-14-O-m-chlorobenzoyl-16-epi-pyroaconine] returned an ED50 of 10.1 mg/kg. Moreover, in data set [2], the LD50 at 72 h was above 20 mg/kg. Besides, in data set [3], the “Solubility: solvents in which soluble” value was “Soluble in ether, chloroform, benzene, ethanol, methanol, ethylacetate, pyridine and dimethyl sulfoxide”; the “Solubility: solvents in which insoluble” value was “Insoluble in hexane and water”.

On to 14-O-m-chlorobenzoylaconine, for which, in data set [3], the “Solubility: solvents in which soluble” value was “Soluble in ether, chloroform, benzene, ethanol, methanol, ethylacetate, pyridine and dimethyl sulfoxide”; the “Solubility: solvents in which insoluble” value was “Insoluble in hexane and water”.

As for 3-deoxy-14-O-m-chlorobenzoylaconine, in data set [3], the “Solubility: solvents in which soluble” value was “Soluble in ether, chloroform, benzene, ethanol, methanol, ethylacetate, pyridine and dimethyl sulfoxide”; the “Solubility: solvents in which insoluble” value is “Insoluble in hexane and water”.

In data set [1], `CCN1CC2(COC)C(O)CC(OC)C34C5CC6(O)C(OC)C(O)C(O)(C5C6OC(=O)c5ccc(F)cc5)C(C(OC)C23)C14` (stereo not shown) [14-O-p-fluorobenzoylaconine] came in with an ED50 of 8.26 mg/kg. In data set [2], the LD50 at 72 h was above 30 mg/kg. In addition, in data set [3], the “Solubility: solvents in which soluble” value was “Soluble in ether, chloroform, benzene, ethanol, methanol, acetone, ethylacetate, pyridine and dimethyl sulfoxide”; the “Solubility: solvents in which insoluble” value is “Insoluble in hexane and water”.

With `CCN1CC2(COC)CCC(OC)C34C5CC6C(OC)C(O)C(C5C6OC(=O)c5cccc(Cl)c5)C(C(OC)C23)C14` (stereo not shown) [3,8,13-trideoxy-14-O-m-chlorobenzoylaconine], in data set [3], the “Solubility: solvents in which soluble” value was “Soluble in ether, chloroform, benzene, ethanol, methanol, ethylacetate, pyridine and dimethyl sulfoxide”; the “Solubility: solvents in which insoluble” value was “Insoluble in hexane and water”.
